Experiments:
Assay type in all cases: cell-based, human
ADAD spheroids [1] = assay: Aβ deposition by whole mount immunostaining (6E10) in ADAD spheroids; settings: ADAD spheroids treated from PID16 to 28; 5 μM β-secretase inhibitor IV or 40 μM DAPT; immunostained at PID28
Method: (§1) β-secretase inhibitor IV (cat #565788), DAPT (cat #D5942), and lamivudine (3TC) (cat #PHR1365) were purchased from Millipore Sigma. To make the stock solution, 5 mM β-secretase inhibitor IV and 40 mM DAPT were dissolved in DMSO and 100 mM 3TC was dissolved in sterile water. For thin gel culture, 2.5 μM β-secretase inhibitor IV, 20 μM DAPT, or 100 μM 3TC was added to the fresh media and used for half media changes starting at PID16 or PID22. For spheroids culture, 5 μM β-secretase inhibitor IV, 40 μM DAPT, or 100 μM 3TC was added to the fresh media and used for half media changes starting at PID16 or PID22.
(§2) Whole mount immunofluorescence staining of spheroid: For whole-mount immunostaining of neuronal spheroid, 3D cell culture clearing kit (abcam: ab243299) was used with modifications. Briefly, fixed spheroids on transwell inserts were permeabilized by sequential dehydration and rehydration using different concentrations of ethanol. […]
(§3) For quantification of the total volume of Aβ deposits, volume and area of the spheroid, co-localization analysis in tau related pathologies, and number of TUNEL positive cells or total cells, the “surface” module in Imaris was used for 3D reconstruction and quantification. […]

ADAD spheroids [2] = assay: Cell death (TUNEL staining) in ADAD spheroids; settings: ADAD spheroids at PID28, treatment starting at PID16
Method: as §1
(§4) For quantification of the total volume of Aβ deposits, volume and area of the spheroid, co-localization analysis in tau related pathologies, and number of TUNEL positive cells or total cells, the “surface” module in Imaris was used for 3D reconstruction and quantification. For measuring the intensity of neurite outgrowth in spheroid, Image J was used by measuring the mean intensity at each region (distal, middle, and proximal).
TUNEL assay: DeadEND Fluorometric TUNEL system kit was purchased from Promega (G3250) and TUNEL assay was performed according to the manufacturer's description. Briefly, the cryosections of neuronal spheroids were permeabilized by 0.2% TritonX-100 in PBS for 5 mins followed by two 5 mins washes in PBS. […]

ADAD 3D-CNs = assay: p-tau (AT8) and K63-ubiquitin/p-tau (PHF1) immunostaining in ADAD 3D-CNs; settings: ADAD 3D-CNs treated with β-secretase inhibitor IV or DAPT
Method: as §1
Immunofluorescence staining of thin gel: The fixed thin gel cultures were permeabilized in PBST (0.2% (vol/vol) TritonX-100 in PBS) at room temperature for 1h and blocked with blocking buffer (5% (wt/vol) BSA, 2% (wt/vol) normal goat serum, and 0.2% (vol/vol) TritonX-100) overnight at 4° C. The blocking buffer was removed from thin gel culture plates and primary antibodies diluted in blocking buffer were added to the plate followed by incubation overnight at 4° C. with gentle rocking. After washing 5 times with PBST, the cells were then incubated with secondary antibodies diluted in blocking buffer at room temperature for 3-5 hours or 4° C. overnight. Cells were washed 5 times with PBST, incubated with DAPI (Sigma) for 20 min at room temperature if needed and sealed with a drop of anti-fade prolong gold reagent (Life technology). Plates were sealed with parafilm and stored at 4° C. before imaging. The immunofluorescence images were taken by Leica SP5X white light laser confocal system.
as §4

LOAD spheroids = assay: Aβ deposition by whole mount immunostaining (6E10) in LOAD spheroids; settings: treatment started at PID22 (after onset of Aβ deposition), examined at PID28
Method: as §1, §2, §3

Compound	Aβ deposition (ADAD spheroids [1])	cell death / neuronal death (ADAD spheroids [2])	K63-ubiquitin+p-tau (PHF1) level (ADAD 3D-CNs)	p-tau (AT8) level (ADAD 3D-CNs)	reduction of Aβ deposition (LOAD spheroids)	effect on Aβ deposition (LOAD spheroids)
C[C@H](NC(=O)Cc1cc(F)cc(F)c1)C(=O)N[C@H](C(=O)OC(C)(C)C)c1ccccc1 [DAPT]	reduction	reduced	significant reduction	significant reduction	~30%	–
β-secretase inhibitor IV	reduction	reduced	significant reduction	significant reduction	–	non-significant effect
